# Values joined by “and” are separate entries in the source; they are usually repeats but may differ in a detail not shown here. Equal entries are not always repeated. Toxic doses and inconclusive results are not listed.
# Tested on: BDF1 mice, B16 melanoma ip, median survival T/C
# Experiment: NCI In Vivo Anticancer Drug Screen. Data for tumor model B16 Melanoma (intraperitoneal) in B6D2F1 (BDF1) mice
# Conditions: endpoint: median survival time, higher = longer survival
# Outline: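 Compounds were tested in mice carrying transplantable tumors. Survival or tumor size was recorded, and each value is the treated-group measurement (T) divided by that of the vehicle-treated control group (C).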
# [1] = dose: 100.0 mg/kg/injection, schedule: Q01DX009 (ip), vehicle: saline
# [2] = dose: 200.0 mg/kg/injection, schedule: Q01DX009 (ip), vehicle: saline
# [3] = dose: 400.0 mg/kg/injection, schedule: Q01DX009 (ip), vehicle: saline
# [4] = dose: 25.0 mg/kg/injection, schedule: Q01DX009 (ip), vehicle: saline
# [5] = dose: 100.0 mg/kg/injection, schedule: Q01DX009 (ip), vehicle: Klucel (hydroxypropylcellulose) (HPC)
# [6] = dose: 200.0 mg/kg/injection, schedule: Q01DX009 (ip), vehicle: Klucel (hydroxypropylcellulose) (HPC)
# [7] = dose: 50.0 mg/kg/injection, schedule: Q01DX009 (ip), vehicle: Klucel (hydroxypropylcellulose) (HPC)
# [8] = dose: 1.0 mg/kg/injection, schedule: Q01DX009 (ip), vehicle: saline with Tween-80
# [9] = dose: 50.0 mg/kg/injection, schedule: Q01DX009 (ip), vehicle: saline
# [10] = dose: 12.5 mg/kg/injection, schedule: Q01DX009 (ip), vehicle: saline with Tween-80
# [11] = dose: 25.0 mg/kg/injection, schedule: Q01DX009 (ip), vehicle: saline with Tween-80
# [12] = dose: 100.0 mg/kg/injection, schedule: Q01DX009 (ip), vehicle: saline with Tween-80
# [13] = dose: 200.0 mg/kg/injection, schedule: Q01DX009 (ip), vehicle: saline with Tween-80
# [14] = dose: 25.0 mg/kg/injection, schedule: Q01DX009 (ip), vehicle: Klucel (hydroxypropylcellulose) (HPC)
compound,measurement,setting,value
CC(=O)CC(=O)N1CCN(C(=O)CC(C)=O)CC1,T/C,[1],87 % of control
same,T/C,[2],87 % of control
same,T/C,[3],91 % of control
Cc1nc(C(=O)O)c(C)c(=O)[nH]1,T/C,"dose: 1.56 mg/kg/injection, schedule: Q01DX009 (ip), vehicle: water",100 % of control
same,T/C,"dose: 3.13 mg/kg/injection, schedule: Q01DX009 (ip), vehicle: water",96 % of control
same,T/C,"dose: 6.25 mg/kg/injection, schedule: Q01DX009 (ip), vehicle: water",105 % of control
same,T/C,"dose: 12.5 mg/kg/injection, schedule: Q01DX009 (ip), vehicle: water",100 % of control
O=C(CCN1CC1)OC1CCCC1,T/C,"dose: 0.75 mg/kg/injection, schedule: Q01DX009 (ip), vehicle: Klucel (hydroxypropylcellulose) (HPC)",111 % of control
same,T/C,"dose: 1.5 mg/kg/injection, schedule: Q01DX009 (ip), vehicle: Klucel (hydroxypropylcellulose) (HPC)",105 % of control
same,T/C,"dose: 3.0 mg/kg/injection, schedule: Q01DX009 (ip), vehicle: Klucel (hydroxypropylcellulose) (HPC)",108 % of control
CCc1ncnc2cc(OCC3CO3)c(OC)cc12 (stereo not drawn),T/C,"dose: 6.25 mg/kg/injection, schedule: Q01DX009 (ip), vehicle: saline with Tween-80",109 % of control
same,T/C,"dose: 20.0 mg/kg/injection, schedule: Q04DX003 (ip), vehicle: other",114 % of control
same,T/C,[4],154 % of control
COC(=O)[C@@H]1[C@H](O)[C@H](C)[C@H](O)[C@H](C)/C=C\C=C(C)C(=O)Nc2c(C)c(OC(C)=O)c3c(c2O)C(=O)C(C)=C2OCOC(=C23)C(C)=C[C@@](C)(O)[C@H](O)[C@@H](C)[C@H]1OC(C)=O,T/C,[5],104 % of control
same,T/C,"dose: 100.0 mg/kg/injection, schedule: Q01DX009 (ip), vehicle: carboxymethylcellulose (CMC)",103 % of control
same,T/C,[6],94 % of control
same,T/C,"dose: 200.0 mg/kg/injection, schedule: Q01DX009 (ip), vehicle: carboxymethylcellulose (CMC)",123 % of control
same,T/C,"dose: 400.0 mg/kg/injection, schedule: Q01DX009 (ip), vehicle: carboxymethylcellulose (CMC)",97 % of control
O=C(Cn1cc(F)c(=O)[nH]c1=O)c1ccco1,T/C,[7],94 % of control
same,T/C,[5],100 % of control
same,T/C,[6],94 % of control
CC1COS(=O)O1 (stereo not drawn),T/C,"dose: 10.0 mg/kg/injection, schedule: Q01DX009 (ip), vehicle: saline sonified",102 % of control
same,T/C,"dose: 20.0 mg/kg/injection, schedule: Q01DX009 (ip), vehicle: saline sonified",100 % of control
same,T/C,"dose: 40.0 mg/kg/injection, schedule: Q01DX009 (ip), vehicle: saline sonified",102 % of control
CC/C(CC(C)CC)=N\O (stereo not drawn),T/C,[1],100 % of control
same,T/C,[2],94 % of control
same,T/C,[3],94 % of control
CCOC(=O)C(CC(C)C)NC(=O)C(Cc1ccc(N(CCCl)CCCl)cc1)NC(C)=O (stereo not drawn),T/C,[8],106 % of control
same,T/C,"dose: 2.0 mg/kg/injection, schedule: Q01DX009 (ip), vehicle: saline with Tween-80",113 % of control
same,T/C,"dose: 4.0 mg/kg/injection, schedule: Q01DX009 (ip), vehicle: saline with Tween-80",106 % of control
same,T/C,"dose: 8.0 mg/kg/injection, schedule: Q01DX009 (ip), vehicle: saline with Tween-80",119 % of control
same,T/C,"dose: 8.0 mg/kg/injection, schedule: Q01DX009 (ip), vehicle: saline",105 % of control
same,T/C,"dose: 16.0 mg/kg/injection, schedule: Q01DX009 (ip), vehicle: saline",116 % of control
CS(=O)(=O)OCCN(CCOS(C)(=O)=O)c1ccc(N=O)cc1,T/C,"dose: 0.1 mg/kg/injection, schedule: Q01DX009 (ip), vehicle: saline",150 % of control
same,T/C,"dose: 0.2 mg/kg/injection, schedule: Q01DX009 (ip), vehicle: saline",184 % of control and 204 % of control
same,T/C,"dose: 0.3 mg/kg/injection, schedule: Q01DX009 (ip), vehicle: saline",175 % of control
CCOC(=O)NO,T/C,"dose: 75.0 mg/kg/injection, schedule: Q01DX009 (ip), vehicle: saline",100 % of control
same,T/C,"dose: 150.0 mg/kg/injection, schedule: Q01DX009 (ip), vehicle: saline",105 % of control
same,T/C,"dose: 300.0 mg/kg/injection, schedule: Q01DX009 (ip), vehicle: saline",103 % of control
CC(CN1c2ccccc2Sc2cccnc21)N(C)C (stereo not drawn),T/C,"dose: 3.12 mg/kg/injection, schedule: Q01DX009 (ip), vehicle: saline",97 % of control
same,T/C,"dose: 6.25 mg/kg/injection, schedule: Q01DX009 (ip), vehicle: saline",107 % of control
same,T/C,"dose: 12.5 mg/kg/injection, schedule: Q01DX009 (ip), vehicle: saline",112 % of control
same,T/C,[4],109 % of control
same,T/C,[9],100 % of control
CC(C)(O)C(C)(O)c1ccc(Cl)cc1 (stereo not drawn),T/C,[10],88 % of control
same,T/C,[11],91 % of control
same,T/C,"dose: 50.0 mg/kg/injection, schedule: Q01DX009 (ip), vehicle: saline with Tween-80",103 % of control
same,T/C,[12],104 % of control
same,T/C,[13],92 % of control
N#CCN1CCCN(CC#N)C1,T/C,"dose: 75.0 mg/kg/injection, schedule: Q01DX009 (ip), vehicle: Klucel (hydroxypropylcellulose) (HPC)",96 % of control
[CH3][Pb]([CH3])([CH3])[Cl],T/C,"dose: 0.75 mg/kg/injection, schedule: Q01DX009 (ip), vehicle: saline",117 % of control
same,T/C,"dose: 1.5 mg/kg/injection, schedule: Q01DX009 (ip), vehicle: saline",103 % of control
O=[N+]([O-])O.[Ga],T/C,[9],102 % of control
same,T/C,[1],92 % of control
CC(C)C(NC(=O)OC(C)(C)C)C(=O)O (stereo not drawn),T/C,[14],123 % of control
same,T/C,[7],101 % of control
NC(Cc1ccc(O)cc1)C(=O)O (stereo not drawn),T/C,[12],110 % of control
same,T/C,"dose: 100.0 mg/kg/injection, schedule: Q04DX003 (ip), vehicle: saline with Tween-80",107 % of control
same,T/C,[13],87 % of control
same,T/C,"dose: 200.0 mg/kg/injection, schedule: Q04DX003 (ip), vehicle: saline with Tween-80",104 % of control
same,T/C,"dose: 400.0 mg/kg/injection, schedule: Q01DX009 (ip), vehicle: saline with Tween-80",90 % of control
same,T/C,"dose: 400.0 mg/kg/injection, schedule: Q04DX003 (ip), vehicle: saline with Tween-80",104 % of control
O=[N+]([O-])c1ccc([I+]c2ccccc2)cc1,T/C,"dose: 12.5 mg/kg/injection, schedule: Q01DX009 (ip), vehicle: Klucel (hydroxypropylcellulose) (HPC)",115 % of control
same,T/C,[10],113 % of control
same,T/C,[14],118 % of control
same,T/C,[11],112 % of control
Cc1ccc(NC(=O)Nc2ccccc2Cl)cc1,T/C,"dose: 100.0 mg/kg/injection, schedule: Q01DX009 (ip), vehicle: gum acacia",89 % of control
COC(=O)C[C@](O)(CCCC(C)(C)O)C(=O)O[C@@H]1C(OC)=C[C@]23CCCN2CCc2cc4c(cc2[C@H]13)OCO4,T/C,"dose: 0.13 mg/kg/injection, schedule: Q01DX009 (ip), vehicle: saline sonified",107 % of control
same,T/C,"dose: 0.25 mg/kg/injection, schedule: Q01DX009 (ip), vehicle: saline sonified",120 % of control
same,T/C,"dose: 0.25 mg/kg/injection, schedule: Q01DX009 (ip), vehicle: saline with Tween-80",114 % of control
same,T/C,"dose: 0.98 mg/kg/injection, schedule: Q04DX003 (ip), vehicle: saline",121 % of control
same,T/C,[8],111 % of control
same,T/C,"dose: 1.4 mg/kg/injection, schedule: Q04DX003 (ip), vehicle: saline",117 % of control
same,T/C,"dose: 2.0 mg/kg/injection, schedule: Q04DX003 (ip), vehicle: saline",118 % of control
same,T/C,"dose: 2.86 mg/kg/injection, schedule: Q04DX003 (ip), vehicle: saline",117 % of control
C=C1C(=O)OC2CC3(C)CC(O)C(OC(C)=O)C(=C)C3CC12 (stereo not drawn),T/C,"dose: 2.5 mg/kg/injection, schedule: Q01DX009 (ip), vehicle: saline",109 % of control
same,T/C,"dose: 5.0 mg/kg/injection, schedule: Q01DX009 (ip), vehicle: saline",104 % of control
same,T/C,"dose: 10.0 mg/kg/injection, schedule: Q01DX009 (ip), vehicle: saline",106 % of control

# From PubChem BioAssay AID192 (DTP/NCI, 2004)
